Laboratory results from patent US7183068B2, “Methods of manufacturing glucose measuring assemblies with hydrogels” (Animas Technologies, LLC, priority 1999, dated 2007).
Values joined by “and” are separate entries in the source; they are usually repeats but may differ in a detail not shown here. Equal values may be shown once.

Columns and labels:
[1] = Adsorption of Nipastat paraben components from hydrogel by mask layer, HPLC of gel extract; assay type: physicochemical; conditions: 48 Hours at 4° C.; for % Loss of Nipastat ® biocide from Gel: Gel + Mask versus Gel Control; for HPLC peak intensity of paraben extracted from hydrogel, Average: average of 5; for HPLC peak intensity of paraben extracted from hydrogel: individual samples 1-5
Description: (§1) Nipastat®-containing hydrogels were formulated with the appropriate buffer salts under standard conditions, from which samples were taken for analysis. […] The hydrogels were cut using a ¾ inch punch to generate the sample disks to assay. Each disk was added to 5 mL of acetonitrile/water (30% ACN, v/v) and the Nipastat® biocide was extracted for 1 hour while shaking on an orbital shaker at 100 rpm. The extract was then filtered through a 0.2 μm membrane prior to HPLC separation and UV detection at 254 nm.
(§2) Reverse phase HPLC chromatography was performed using a Waters 3.9 mm×15 cm Nova-Pak C-18 column (Milford, Mass.) operating at a flow rate of between about 1.0 to 2.0 mL/min. at 35° C. The eluent was monitored by UV at 254 nm using a Shimadzu SPD-10AU UV-Visible spectrometer (Kyoto, Japan). Samples 10 μL in volume were injected into the column equilibrated in 30% ACN in water, and the following 20-minute gradient program was performed: • 1. Initial time of injection: 30% ACN/70% water at a flow rate of 1 mL/min • 2. Linear Gradient from 30% ACN to 80% ACN for 9.0 minutes (1 mL/min) • 3. Linear Gradient from 80% ACN to 100% ACN for 0.5 minutes (1 mL/min) • 4. 100% ACN for 4.5 minutes (1 mL/min) • 5. Linear Gradient from 100% ACN to 30% ACN for 0.5 minutes at a flow rate of 2 mL/min • 6.30% ACN for 5.5 minutes at a flow rate of 1 mL/min
(§3) The HPLC profiles of the extracts were compared with that of a standard solution of known concentration comprising the p-hydroxybenzoate derivatives. The peak intensities of the experimental samples are compared to those of the standards to determine relative amounts of each extracted paraben.
(§4) Collection assemblies incorporating Nipastat® biocide-comprising hydrogels were assayed for retention of the biocide within the hydrogel. Samples of the hydrogel prior to and after incorporation into the collection assembly, as well as the components of the collection assembly in contact with the hydrogel, were prepared as described in Example 1.

[2] = Adsorption of Nipastat paraben components from hydrogel by gel retaining layer, HPLC of gel extract; assay type: physicochemical; conditions: 9 Days at 4° C.; for % Loss of Nipastat ® biocide from Gel: Gel + GRL versus Gel Control; for HPLC peak intensity of paraben extracted from hydrogel, Average: average of 5; for HPLC peak intensity of paraben extracted from hydrogel: individual samples 1-5
Description: as §1, §2, §3, §4

[3] = Loss of undecylenic acid from hydrogel, gel control, GC; assay type: physicochemical; conditions: Two Weeks at Room Temperature
Description: (§5) Collection assemblies incorporating sodium undecylenate-comprising hydrogels were assayed for retention of the biocide within the hydrogel. The presence of undecylenic acid in the hydrogel and assembly components was determined by gas chromatography (GC) using a Hewlett Packard (Avondale, Pa.) 5890 gas chromatogram equipped with an HP 3396A integrator. The hydrogels and collection assembly components were cut using a ¾ inch punch to generate the samples to assay. Each sample “disk” was added to 4 mL of 1M HCl, and the undecylenic acid was extracted for 2 hours while shaking on an orbital shaker at 150 rpm, followed by 10 minutes at 100 rpm. The sample disks were then extracted twice with 4 mL of ethyl acetate. Samples 1 μL in volume were injected into the GC and the results compared to that generated for a standard solution of undecylenic acid.

[4] = Adsorption of undecylenic acid from hydrogel into mask layer, GC; assay type: physicochemical; conditions: Two Weeks at Room Temperature
Description: as §5

[5] = Adsorption of undecylenic acid from hydrogel into gel retaining layer, GC; assay type: physicochemical; conditions: Two Weeks at Room Temperature
Description: as §5

[6] = Response of sensing electrode to glucose, acetaminophen and uric acid in presence of biocide (percent recovery); conditions: preconditioned 10 minutes at 0.77V, 50 minutes at 0.42V
Excerpt: Two biocides were compared with respect to the effects their presence (within the ionically conductive medium) had on signal generation at the sensing element under three conditions: in the presence of glucose, glucose plus acetaminophen, and glucose plus uric acid. The Nipastat® biocide was shown in the examples above to form a permeation selective barrier at the reactive face of the sensor element. The second biocide tested, undecylenic acid, was not expected to polymerize under the iontophoretic conditions used during the functionality test as described in the previous example. The measured responses of the sensor elements are presented in Table 7, normalized to a control “background” response for each sensor element. As described in Example 5, the sensor electrodes were assembled with the collection insert layer containing the appropriate ionically conductive material (control, Nipastat® biocide, or undecylenic acid biocide) to form the autosensor assemblies. The autosensor assemblies were preconditioned for 10 minutes at 0.77V, followed by 50 minutes at 0.42V, after which the glucose solution (200 μM) plus or minus the interferant species was deposited onto the ionically conductive material, and the response of the sensor element measured from this time forward.

[7] = tested on: Aspergillus niger; assay: Modified USP antimicrobial preservative effectiveness test of hydrogels; assay type: cell-based; conditions: Aspergillus niger inoculation, 28 day period
Description: (§6) Nipastat® biocide and undecylenic acid were compared with respect to the effects their presence (within the ionically conductive medium) had on microbial growth over time. A modified USP antimicrobial preservative effectiveness test was performed, using Aspergillus niger, Candida albicans, Eschericia coli, Pseudomonas aeruginosa and Staphylococcus aureus. Separate portions of the two hydrogels were inoculated with a low concentration of one of the listed microorganisms, and recovery of the microorganism was determined over a period of 28 days. For this assay, the microorganisms were cultured, harvested and diluted to yield working suspensions of 2.0×10^3 to 2.0×10^4 colony forming units (CFUs)/sample.

[8] = tested on: Candida albicans; assay: as above; assay type: cell-based; conditions: Candida albicans inoculation, 28 day period
Description: as §6

[9] = tested on: Eschericia coli; assay: as above; assay type: cell-based; conditions: Eschericia coli inoculation, 28 day period
Description: as §6

[10] = tested on: Pseudomonas aeruginosa; assay: as above; assay type: cell-based; conditions: Pseudomonas aeruginosa inoculation, 28 day period
Description: as §6

[11] = tested on: Staphylococcus aureus; assay: as above; assay type: cell-based; conditions: Staphylococcus aureus inoculation, 28 day period
Description: as §6

Compound	% Loss of Nipastat ® biocide from Gel [1] [%]	HPLC peak intensity of paraben extracted from hydrogel, Average ([1]; Gel + Mask)	HPLC peak intensity of paraben extracted from hydrogel ([1]; Gel + Mask)	HPLC peak intensity of paraben extracted from hydrogel, Average ([1]; Gel Control)	HPLC peak intensity of paraben extracted from hydrogel ([1]; Gel Control)	% Loss of Nipastat ® biocide from Gel [2] [%]	HPLC peak intensity of paraben extracted from hydrogel, Average ([2]; Gel + GRL)	HPLC peak intensity of paraben extracted from hydrogel ([2]; Gel + GRL)	HPLC peak intensity of paraben extracted from hydrogel, Average ([2]; Gel Control)	HPLC peak intensity of paraben extracted from hydrogel ([2]; Gel Control)	further results
CCOC(=O)c1ccc(O)cc1 [Ethyl, p-hydroxybenzoic acid ethyl ester]	99.9	57	0 (4×) and 285	63573	43754 and 52495 and 93771 and 58684 and 69162	34.2	40848	23429 and 43116 and 38410 and 46214 and 53073	62118	58534 and 68190 and 70588 and 56529 and 56747	
COC(=O)c1ccc(O)cc1 [Methyl, p-hydroxybenzoic acid methyl ester]	96.1	10075	5445 and 11776 and 13807 and 11268 and 8081	257019	199735 and 233495 and 282756 and 265561 and 303549	17.0	231960	147682 and 239356 and 231307 and 251620 and 289836	279309	261836 and 315315 and 313086 and 256304 and 250006	
CCCOC(=O)c1ccc(O)cc1 [Propyl, p-hydroxybenzoic acid propyl ester]	99.8	50	0 (4×) and 252	24535	18744 and 22146 and 27621 and 25936 and 28226	58.5	10873	4958 and 11465 and 9664 and 15618	26218	24034 and 30121 and 30407 and 24349 and 22180	
C=CCCCCCCCCC(=O)O [undecylenic acid, 10-undecenoic acid]											% Loss for Gel Control, Average ([3]; average): 62.4%; % Loss for Gel Control ([3]; individual hydrogel samples): 64.9% and 68.1% and 75.2% and 76.2% and 37.2% and 52.8%; % Loss for Gel + Mask Layer, Average ([4]; average): 73.1%; % Loss for Gel + Mask Layer ([4]; individual hydrogel samples): 73.3% and 68.5% and 78.2% and 72.5%; % Loss for Gel + GRL, Average ([5]; average): 28.1%; % Loss for Gel + GRL ([5]; individual hydrogel samples): 37.0% and 28.4% and 22.2% and 24.7%; formation of a permeation selective barrier impeding acetominophen and uric acid signal generation [6]: does not; biocide activity within the hydrogel: microbial count [7]: effective at reducing the microbial count; effectiveness compared between the two biocides [7]: more effective than the Nipastat® biocide; biocide activity within the hydrogel: microbial count [8]: effective at reducing the microbial count; effectiveness compared between the two biocides [8]: equally effective; biocide activity within the hydrogel: microbial count [9]: effective at reducing the microbial count; effectiveness compared between the two biocides [9]: equally effective; biocide activity within the hydrogel: microbial count [10]: effective at reducing the microbial count; effectiveness compared between the two biocides [10]: more effective than the Nipastat® biocide; biocide activity within the hydrogel: microbial count [11]: effective at reducing the microbial count; effectiveness compared between the two biocides [11]: more effective than the Nipastat® biocide
p-hydroxybenzoic acid butyl esters	99.9	87	0 (4×) and 436		50220						
